Experimental data as given in ChEMBL document CHEMBL3124761, “Synthesis and biological evaluation of N,N'-squaramides with high in vivo efficacy and low toxicity: toward a low-cost drug against Chagas disease” (J Med Chem, 2014).
Active and inactive are the calls of the source. The rule behind the calls is not given here.

What was measured:
[1] = test system: Mus musculus; assay: Toxicity in BALB/c albino mouse infected with blood trypomastigote stage of Trypanosoma cruzi assessed as decrease in alkaline phosphatase level in serum at 40 mg/kg, ip administered on day 7 to 12 post-infection measured after day 150 relative to control; format: organism-based; parameters: dose 40 mg/kg, route intraperitoneal; scale not given: the % may be the effect or the level left; settings: in vivo
[2] = test system: Mus musculus; assay: Toxicity in BALB/c albino mouse infected with blood trypomastigote stage of Trypanosoma cruzi assessed as decrease in alkaline phosphatase level in serum at 25 mg/kg, ip administered on day 7 to 12 post-infection measured after day 120 relative to control; format: organism-based; parameters: dose 25 mg/kg, route intraperitoneal; scale not given: the % may be the effect or the level left; settings: in vivo
[3] = test system: Mus musculus; assay: Toxicity in BALB/c albino mouse infected with blood trypomastigote stage of Trypanosoma cruzi assessed as increase in total bilirubin level in serum at 500 mg/kg, ip relative to control; format: organism-based; parameters: dose 500 mg/kg, route intraperitoneal; settings: in vivo
[4] = test system: Mus musculus; assay: Toxicity in BALB/c albino mouse infected with blood trypomastigote stage of Trypanosoma cruzi assessed as increase in total bilirubin level in serum at 40 mg/kg, ip administered on day 7 to 12 post-infection measured after day 150 relative to control; format: organism-based; parameters: dose 40 mg/kg, route intraperitoneal; settings: in vivo
[5] = test system: Mus musculus; assay: Toxicity in BALB/c albino mouse infected with blood trypomastigote stage of Trypanosoma cruzi assessed as change in ALT/GPT level in serum at 500 mg/kg, ip relative to control; format: organism-based; parameters: dose 500 mg/kg, route intraperitoneal; settings: in vivo
[6] = test system: Mus musculus; assay: Toxicity in BALB/c albino mouse infected with blood trypomastigote stage of Trypanosoma cruzi assessed as change in ALT/GPT level in serum at 25 mg/kg, ip administered on day 7 to 12 post-infection measured after day 120 relative to control; format: organism-based; parameters: dose 25 mg/kg, route intraperitoneal; settings: in vivo
[7] = test system: Mus musculus; assay: Toxicity in BALB/c albino mouse infected with blood trypomastigote stage of Trypanosoma cruzi assessed as change in AST/GOT level in serum at 500 mg/kg, ip relative to control; format: organism-based; parameters: dose 500 mg/kg, route intraperitoneal; settings: in vivo
[8] = test system: Mus musculus; assay: Toxicity in BALB/c albino mouse infected with blood trypomastigote stage of Trypanosoma cruzi assessed as increase in AST/GOT level in serum at 40 mg/kg, ip administered on day 7 to 12 post-infection measured after day 150 relative to control; format: organism-based; parameters: dose 40 mg/kg, route intraperitoneal; settings: in vivo
[9] = test system: Mus musculus; assay: Toxicity in BALB/c albino mouse infected with blood trypomastigote stage of Trypanosoma cruzi assessed as increase in AST/GOT level in serum at 25 mg/kg, ip administered on day 7 to 12 post-infection measured after day 120 relative to control; format: organism-based; parameters: dose 25 mg/kg, route intraperitoneal; settings: in vivo
[10] = test system: Mus musculus; assay: Toxicity in BALB/c albino mouse infected with blood trypomastigote stage of Trypanosoma cruzi assessed as change in LDH level in serum at 500 mg/kg, ip relative to control; format: organism-based; parameters: dose 500 mg/kg, route intraperitoneal; settings: in vivo
[11] = test system: Mus musculus; assay: Toxicity in BALB/c albino mouse infected with blood trypomastigote stage of Trypanosoma cruzi assessed as increase in LDH level in serum at 40 mg/kg, ip administered on day 7 to 12 post-infection measured after day 150 relative to control; format: organism-based; parameters: dose 40 mg/kg, route intraperitoneal; settings: in vivo
[12] = test system: Mus musculus; assay: Toxicity in BALB/c albino mouse infected with blood trypomastigote stage of Trypanosoma cruzi assessed as increase in creatinephophokinase-MB level in serum at 500 mg/kg, ip relative to control; format: organism-based; parameters: dose 500 mg/kg, route intraperitoneal; settings: in vivo
[13] = test system: Mus musculus; assay: Toxicity in BALB/c albino mouse infected with blood trypomastigote stage of Trypanosoma cruzi assessed as change in uric acid level in serum at 500 mg/kg, ip; format: organism-based; parameters: dose 500 mg/kg, route intraperitoneal; settings: in vivo
[14] = test system: Mus musculus; assay: Toxicity in BALB/c albino mouse infected with blood trypomastigote stage of Trypanosoma cruzi assessed as change in urea level in serum at 40 mg/kg, ip administered on day 7 to 12 post-infection measured after day 150 relative to control; format: organism-based; parameters: dose 40 mg/kg, route intraperitoneal; settings: in vivo
[15] = test system: Trypanosoma cruzi; assay: Trypanocidal activity against blood trypomastigote stage of Trypanosoma cruzi infected in immunosuppressed BALB/c albino mouse chronic chagas disease model assessed as decrease in parasite burden in heart at 40 mg/kg, ip administered on day 7 to 12 post-infection measured on day 150 by PCR analysis relative to control; format: functional; parameters: scale not given: the % may be the effect or the level left; settings: route intraperitoneal
[16] = test system: Trypanosoma cruzi; assay: Trypanocidal activity against blood trypomastigote stage of Trypanosoma cruzi infected in nonimmunosuppressed BALB/c albino mouse chronic chagas disease model assessed as increase in total Ig-G level at 40 mg/kg, ip administered on day 7 to 12 post-infection measured after day 150 by ELISA; format: functional, organism-based; parameters: dose 40 mg/kg
[17] = test system: Trypanosoma cruzi; assay: (§1) Trypanocidal activity against blood trypomastigote stage of Trypanosoma cruzi infected in immunosuppressed BALB/c albino mouse chronic chagas disease model assessed as increase in total Ig-G level at 40 mg/kg, ip administered on day 7 to 12 post-infection measured after day 150 by ELISA; format: functional, organism-based; parameters: dose 40 mg/kg
[18] = test system: Trypanosoma cruzi; assay: as §1, with “cyclophosphamide-induced reactivation of parasitemia” for “increase in total Ig-G level”, “(reference value: 98.1%)” for “by ELISA”; format: functional; settings: route intraperitoneal
[19] = test system: Trypanosoma cruzi; assay: Trypanocidal activity against metacyclic trypomastigote stage of Trypanosoma cruzi infected in BALB/c albino mouse acute chagas disease model assessed as inhibition of parasitemia at 25 mg/kg, ip administered on day 7 to 12 post-infection measured every 2 days until day 40 […] relative to control; format: functional; settings: route intraperitoneal
[20] = test system: Trypanosoma cruzi; assay: (§2) Antitrypanosomal activity against trypomastigote stage of Trypanosoma cruzi IRHOD/CO/2008/SN3 assessed as reduction of trypomastigote number per mililiter of culture medium at IC25 preincubated for 12 hrs followed by compound washout measured every 48 hrs for 10 days by Neubauer hemocytometric chamber analysis relative to control; format: functional
[21] = test system: Trypanosoma cruzi; assay: as §2, with “amastigote” for “trypomastigote”, “IRHOD/CO/2008/SN3 infected in African green monkey Vero cells” for “IRHOD/CO/2008/SN3”, “cell” for “mililiter of culture medium”; format: functional
[22] = Selectivity index, ratio of IC50 for African green monkey Vero cells to IC50 for amastigote stage of Trypanosoma cruzi IRHOD/CO/2008/SN3 infected in African green monkey Vero cells; format: toxicity, cell-based; settings: read-out: Ratio IC50
[23] = Selectivity index, ratio of IC50 for African green monkey Vero cells to IC50 for epimastigote stage of Trypanosoma cruzi IRHOD/CO/2008/SN3; format: toxicity, cell-based; settings: read-out: Ratio IC50
[24] = test system: Vero; assay: Cytotoxicity against African green monkey Vero cells assessed as cell viability after 72 hrs by propidium iodide/fluorescein diacetate staining-based flow cytometric analysis; settings: Chlorocebus sabaeus
[25] = test system: Trypanosoma cruzi; assay: Antitrypanosomal activity against amastigote stage of Trypanosoma cruzi IRHOD/CO/2008/SN3 infected in African green monkey Vero cells assessed as parasite growth inhibition after 72 hrs by Giemsa staining-based microscopic analysis; format: functional, organism-based; settings: IRHOD/CO/2008/SN3, Vero
[26] = test system: Trypanosoma cruzi; assay: Antitrypanosomal activity against epimastigote stage of Trypanosoma cruzi IRHOD/CO/2008/SN3 assessed as appearance of enormous reservosomes at IC25 after 72 hrs by TEM analysis; format: functional, organism-based
[27] = test system: Trypanosoma cruzi; assay: Antitrypanosomal activity against epimastigote stage of Trypanosoma cruzi IRHOD/CO/2008/SN3 assessed as appearance of swollen structure filled with empty vacuoles at IC25 after 72 hrs by TEM analysis; format: functional, organism-based
[28] = test system: Trypanosoma cruzi; assay: Antitrypanosomal activity against epimastigote stage of Trypanosoma cruzi IRHOD/CO/2008/SN3 assessed as change in excreted succinate level at IC25 after 96 hrs by 1H NMR analysis relative to control; format: functional
[29] = test system: Trypanosoma cruzi; assay: Antitrypanosomal activity against epimastigote stage of Trypanosoma cruzi IRHOD/CO/2008/SN3 assessed as change in excreted pyruvate level at IC25 after 96 hrs by 1H NMR analysis relative to control; format: functional
[30] = test system: Trypanosoma cruzi; assay: Antitrypanosomal activity against epimastigote stage of Trypanosoma cruzi IRHOD/CO/2008/SN3 assessed as change in excreted alanine level at IC25 after 96 hrs by 1H NMR analysis relative to control; format: functional
[31] = test system: Mus musculus; assay: Toxicity in BALB/c albino mouse infected with blood trypomastigote stage of Trypanosoma cruzi assessed as increase in alkaline phosphatase level in serum at 500 mg/kg, ip relative to control; format: organism-based; parameters: dose 500 mg/kg, route intraperitoneal; settings: in vivo

SMILES: CCCCNc1c(N(C)CCCN(C)C)c(=O)c1=O
- Activity [1]: 30%
- Activity [2]: 10%
- Activity [3]: 40%
- Activity [4]: 30%
- Activity [5]: < 10%
- Activity [6]: < 10%
- Activity [7]: < 10%
- Activity [8]: 10%
- Activity [9]: 10%
- Activity [10]: < 10%
- Activity [11]: 10%
- Activity [12]: > 50%
- Activity [13]: < 10%
- Activity [14]: < 10%
- Activity [15]: 83.3%
- Activity [16]: Active
- Activity [17]: Active
- Activity [18]: 3.1%
- inhibition in vivo at 25 mg/kg [19]: 67%
- inhibition (INH) [20]: 75%
- inhibition (INH) [21]: 52%
- selectivity ratio [22]: 53.3
- selectivity ratio [23]: 48.2
- IC50 [24]: 453 µM
- IC50 [25]: 8.5 µM
- Activity [26]: Active
- Activity [27]: Active
- Activity [28]: -26.9%
- Activity [29]: 81.5%
- Activity [30]: -18.5%
- Activity [31]: > 50%
